Assay results from PubChem BioAssay AID504571 (Southern Research Specialized Biocontainment Screening …, 2011).

Each compound was assayed on human PBMC cytotoxicity, percent of cell control (assay: PBMC viability reduction by compounds – cell-based, PBMC assay companion, set 2, cytotoxicity control for HIV-1 antiviral lead project, dose response (AID 504571)).

In order of falling CC50:
1. COc1ccc(CCn2c(O)cc3nn(-c4nc5ccccc5s4)c(=O)c-3c2C)cc1  49.8 µM
2. Cc1c2c(=O)n(-c3nc4ccccc4s3)nc-2cc(O)n1CCC(C)C  45 µM
3. Cc1c2c(=O)n(-c3nc4ccccc4s3)nc-2cc(O)n1CCc1cccs1  40.8 µM
4. Cc1c2c(=O)n(-c3nc4ccccc4s3)nc-2cc(O)n1Cc1ccccc1Cl  35.6 µM
5. COc1ccccc1Cn1c(O)cc2nn(-c3nc4ccccc4s3)c(=O)c-2c1C  29.6 µM
6. Cc1c2c(=O)n(-c3nc4ccccc4s3)nc-2cc(O)n1Cc1ccccc1  21 µM
7. COc1ccc(Cn2c(O)cc3nn(-c4nc5ccccc5s4)c(=O)c-3c2C)cc1  19.1 µM
8. Cc1c2c(=O)n(-c3nc4ccccc4s3)nc-2cc(O)n1Cc1ccc(F)cc1  19.1 µM
9. Cc1c2c(=O)n(-c3nc4ccccc4s3)nc-2cc(O)n1Cc1cccs1  14.2 µM
10. Cc1c2c(=O)n(-c3nc4ccccc4s3)nc-2cc(O)n1C1CC1  5.72 µM
11. Cc1c2c(=O)n(-c3nc4ccccc4s3)nc-2cc(O)n1Cc1ccncc1  2.64 µM
12. Cc1c2c(=O)n(-c3nc4ccccc4s3)nc-2cc(O)n1CCc1ccc(O)cc1  2.55 µM
13. Cc1c2c(=O)n(-c3nc4ccccc4s3)nc-2cc(O)n1Cc1cccnc1  2.24 µM
